Experimental data published in US20150250782A1, “Methods and Compositions for Hypotensive Resuscitation” (Pharmazz, Inc., priority 2012, published 2015).

Legend:
hemorrhaged rats = experiment: Initial experiments in hemorrhaged rats with 0.45 mg/kg centhaquin; type: in vivo, rat
Experimental: Initial experiments in hemorrhaged rats were performed with a 0.45 mg/kg dose of centhaquin. […] Centhaquin (0.45 mg/kg) produced a decrease in HR (beats/min) from 368±12 at hemorrhage, to 306±6, 309±6 and 274±11 at 30, 60 and 120 min, respectively, following resuscitation; cardiac output (mL) increased from 32±6 at hemorrhage, to 77±3, 74±4 and 62±5 at 30, 60 and 120 min, respectively, following resuscitation; while systemic vascular resistance (dynes*sec/cm5) was 84±4 at hemorrhage, and fell to 39±9, 42±9 and 45±6 at 30, 60 and 120 min, respectively, following resuscitation.

α2 adrenergic receptors = experiment: Centhaquin resuscitation with and without α2 adrenergic antagonists: arterial blood hematocrit, pH, gases, electrolytes, lactate; type: in vivo, rat; design: pCO2 / pO2 / Na+ / K+ / Ca++ / Lactate: unit not given beside the values
[1] = system: isolated perfused rabbit heart; details: Bhatnagar, Pande et al. 1985; cited from earlier work
[2] = system: urethane anesthetized rats and conscious freely moving cats and rats; details: 0.05 to 0.2 mg/kg, iv; Srimal, Gulati et al. 1990; cited from earlier work
[3] = 120 min following resuscitation

## Cc1cccc(N2CCN(CCc3ccc4ccccc4n3)CC2)c1 [centhaquin, 2-[2-(4-(3-methyphenyl)-1-piperazinyl)ethyl]-quinoline]
Hemorrhaged rats; 30 min following resuscitation
  HR: 306±6 beats/min
  MAP: 38±4 mmHg
  cardiac output: 77 ± 3 mL
  systemic vascular resistance: 39±9 dynes*sec/cm5
Hemorrhaged rats; 60 min following resuscitation
  HR: 309±6 beats/min
  MAP: 39±4 mmHg
  cardiac output: 74 ± 4 mL
  systemic vascular resistance: 42±9 dynes*sec/cm5
Hemorrhaged rats; [3]
  HR: 274±11 beats/min
  MAP: 35±4 mmHg
  cardiac output: 62 ± 5 mL
  systemic vascular resistance: 45±6 dynes*sec/cm5
Hemorrhaged rats; at hemorrhage
  HR: 368±12 beats/min
  cardiac output: 32 ± 6 mL
  systemic vascular resistance: 84±4 dynes*sec/cm5
α2 adrenergic receptors; Baseline
  Ca++: 1.15 ± 0.02
  Hematocrit: 54.67 ± 2.03
  K+: 2.73 ± 1.07
  Lactate: 3.17 ± 0.24
  Na+: 134.33 ± 0.88
  pCO2: 46.33 ± 1.67
  pH: 7.34 ± 0.01
  pO2: 118.33 ± 6.77
α2 adrenergic receptors; Hemorrhage
  Ca++: 1.22 ± 0.00
  Hematocrit: 37.67 ± 2.33
  K+: 5.73 ± 0.30
  Lactate: 10.10 ± 0.70
  Na+: 124.33 ± 1.86
  pCO2: 27.33 ± 1.20
  pH: 7.24 ± 0.02
  pO2: 124.00 ± 4.73
α2 adrenergic receptors; Resuscitation 30 min
  Ca++: 1.17 ± 0.02
  Hematocrit: 33.00 ± 1.53
  K+: 4.73 ± 0.09
  Lactate: 5.80 ± 0.32
  Na+: 130.00 ± 0.08
  pCO2: 33.00 ± 0.58
  pH: 7.29 ± 0.01
  pO2: 124.00 ± 4.51
α2 adrenergic receptors; Resuscitation 60 min
  Ca++: 1.18 ± 0.03
  Hematocrit: 32.67 ± 1.76
  K+: 4.60 ± 0.00
  Lactate: 4.53 ± 0.38
  Na+: 128.00 ± 1.00
  pCO2: 33.33 ± 0.33
  pH: 7.31 ± 0.01
  pO2: 121.67 ± 4.63
α2 adrenergic receptors; Resuscitation 120 min
  Ca++: 1.18 ± 0.01
  Hematocrit: 33.67 ± 2.03
  K+: 5.17 ± 0.15
  Lactate: 5.67 ± 0.22
  Na+: 130.33 ± 0.33
  pCO2: 29.00 ± 1.15
  pH: 7.28 ± 0.01
  pO2: 132.00 ± 6.69
[1]
  inotropic effect, ventricular contractions: positive inotropic effect
[2]
  mean arterial pressure (MAP) and heart rate (HR): dose-dependent decrease
